Experimental data: US12365656B2, “Oxazolidinone compounds and methods of use thereof as antibacterial agents” (priority 2019, dated 2025)
In brackets after ≈: the same amount, converted by molar mass. Where two headings read alike, the source gives them in different places.

Key:
Format in all cases: cell-based
[1] = test system: Mycobacterium tuberculosis (Mtb-GFP; H37Rv pMSP12::GFP); experiment: microbe, parasite or virus in culture; conditions: Mycobacterium tuberculosis, H37RV, 168 h, pH 6.8, read-out: Mtb Cho MITC95
[2] = test system: Mycobacterium tuberculosis (Mtb-GFP; H37Rv pMSP12::GFP); experiment: microbe, parasite or virus in culture; conditions: Mycobacterium tuberculosis, H37RV, 168 h, pH 6.8, read-out: Mtb Glu MITC95
[3] = test system: mitochondrial protein synthesis in HepG2 cells; experiment: Mitochondrial protein synthesis assay; conditions: Homo sapiens, 96 h, 4 days, COX-1 relative to SDH-A / Janus Green, In Cell ELISA, read-out: MPS IC50

Structure (SMILES) | MIC [1] | MIC [2] | IC50 [3]
O=C1O[C@@H](CO)CN1c1ccc(-c2ccc(S(=O)(=O)N3CCC3)cc2)c(F)c1 [Example 38, (5R)-3-[4′-(azetidine-1-sulfonyl)-2-fluoro[1,1′-biphenyl]-4-yl]-5-(hydroxymethyl)-1,3-oxazolidin-2-one] | 6.3 µM (≈ 2.56 µg/mL) | 6.3 µM (≈ 2.56 µg/mL) | > 13 µM
CS(=O)(=O)Cc1ccc(-c2ccc(N3C[C@H](CO)OC3=O)cc2F)cc1 [Example 39] | 1.2 µM (≈ 0.455 µg/mL) | 1.6 µM (≈ 0.607 µg/mL) | 1.5 µM
CC1(c2c(F)cc(N3C[C@H](CO)OC3=O)cc2F)CCS(=O)(=O)CC1 [Example 41, 4-{2,6-difluoro-4-[(5R)-5-(hydroxymethyl)-2-oxo-1,3-oxazolidin-3-yl]phenyl}-4-methyl-lλ^6-thiane-1,1-dione] | 9.4 µM (≈ 3.53 µg/mL) | 6.3 µM (≈ 2.36 µg/mL) | > 100 µM
CC(=O)NC[C@H]1CN(c2ccc(N3CCOCC3)c(F)c2)C(=O)O1 [linezolid, reference compound] | 3.14 µM (≈ 1.06 µg/mL) | 4.58 µM (≈ 1.55 µg/mL) | 8 µM
